# Assay results reported in patent publication US9381238B2 (priority 2010, dated 2016).
# How the values were obtained:
# [1] = tested on: H3N2 A/Moscow/10/99 virus; experiment: Cytopathic effects induced by influenza virus on A549 cell layer (photon microscopy); type: cell-based, H3N2 A/Moscow/10/99 virus in human A549 cells; settings: A549, 10 μM, MOI 2×10^−3, from 24 hpi onward, molecule added 14 h before infection and retained (FIG. 1)
# Procedure: (§1) For all the following examples, the experiments were carried out at a temperature of 37° C. The culture medium used is DMEM (Ref 41966, Gibco), supplemented with trypsin (1 ug/mL, Sigma) during the infections.
# A549 cells (ATCC, American Type Culture Collection CCL185) are cells derived from a lung carcinoma. […] Several ex-vivo studies on lung tissues from infected patients have shown that epithelial cells of this type probably constitute the primary influenza virus infection site (Nicholls et al. Nat. Med. 2007 February; 13(2):147-9, van Riel et al. Science. 2006 Apr. 21; 312(5772):399). These cells are therefore considered to be relevant for studying influenza viruses and are, consequently, very widely used in the field of fundamental research on influenza viruses.
# The observation and monitoring of the cytopathic effects induced by the virus over time generally allow a first evaluation of the degree of infection of the cell layer. The cytopathic effect induced by the virus is characterized in particular by fusion of the infected cells with one another, forming multinucleated cell structures (syncytia). By photon microscopy, observation of the amount and of the scale of these structures on the cell layer makes it possible to obtain an estimation of the degree of infection.
# [2] = tested on: H3N2 A/Moscow/10/99 virus; experiment: Infectious titer (TCID50/ml) in supernatant of infected A549 cells; type: cell-based, H3N2 A/Moscow/10/99 virus in human A549 cells; settings: A549, from 24 hpi onward, presence vs absence of Nutlin-3 (FIG. 2A)
# [3] = tested on: H3N2 A/Moscow/10/99 virus; experiment: Copies of viral genome M/ml in supernatant of infected A549 cells by real-time RT-qPCR; type: cell-based, H3N2 A/Moscow/10/99 virus in human A549 cells; settings: for times more copies of genome in supernatant than control without Nutlin-3: A549, 10 hpi (single viral cycle); for times more copies M/ml of supernatant than the control: MOI 10^−3, pretreatment
# Procedure: (§2) FIGS. 2 to 7 show the observed amounts of copies of viral genome M/ml in the culture supernatant (M for the segment of viral genome encoding the M1 and M2 viral proteins), with various culture conditions and after various infection times.
# as §1
# In order to gain a more precise idea, the quantification of the number of copies of viral genome M/ml of supernatant was then carried out, by extraction of the viral RNAs and quantification by real-time RT-qPCR (FIG. 2B). At 48 hpi, 6.66×10^6 copies M/ml were measured in the absence of Nutlin-3, compared with 2.44×10^8 copies M/ml in the presence of Nutlin-3, i.e. a gain of more than 36-fold in terms of viral production. The same calculation performed at 72 hpi indicates a gain of 88-fold in favor of the conditions where Nutlin-3 is used.
# The A549 cells were infected with various amounts of virus (MOI 0.01, 0.1 and 1), in the presence or absence of Nutlin-3, and the amount of copies M/ml of supernatant was measured by RT-qPCR after a single viral cycle (10 hpi) or after several viral cycles (28 hpi). The cells were brought into contact with Nutlin-3, either 14 h before the infection (T=−14 h), or immediately at the time of infection (T=0 h) (FIG. 3). In any event, the Nutlin-3 is added in one go.
# A similar experiment was carried out with an MOI of 10^−3, while modifying the time at which the pretreatment is carried out (14 h compared with 10 h before infection). At 48 hpi, Nutlin-3 makes it possible to obtain 1.5, 5.7 and 40 times more copies M/ml of supernatant than the control for respective concentrations of 0.1, 1 and 10 μM (FIG. 4).
# This molecule was used at concentrations of 2 and 20 μM with an MOI of 10^−3.
# [4] = tested on: H3N2 A/Moscow/10/99 virus; experiment: Copies of viral genome M/ml in supernatant of infected MDCK cells by RT-qPCR; type: cell-based, H3N2 A/Moscow/10/99 virus in MDCK cells (dog); settings: MOI 10^−3, 0.1, 1 and 10 μM
# Procedure: as §2, §1
# The MDCK line (ATCC No. CCL-34) is the most widely used line for the laboratory production of influenza virus. It is a cell line which is also registered and with which batches of vaccine have been produced by Novartis and Solvay.
# At 24 hpi, up to 19 times more copies of genome M/ml are obtained in the presence of Nutlin-3 compared with the control.
Compound,cytopathic effect compared with infected cells without Nutlin-3 [1],gain in infectious titer (TCID50/ml) in the supernatant [2],"times more copies of genome in supernatant than control without Nutlin-3 ([3]; treatment started at T=0, MOI 0.1 (FIG. 3)) [times]","times more copies of genome in supernatant than control without Nutlin-3 ([3]; treatment started at T=0, MOI 1 (FIG. 3)) [times]","gain in viral production (copies M/ml) vs absence of Nutlin-3 ([3]; A549, 48 hpi (FIG. 2B))","times more copies M/ml of supernatant than the control ([3]; A549, 48 hpi, 0.1 μM (FIG. 4)) [times]","times more copies M/ml of supernatant than the control ([3]; A549, 48 hpi, 1 μM (FIG. 4)) [times]","times more copies M/ml of supernatant than the control ([3]; A549, 48 hpi, 10 μM (FIG. 4)) [times]","copies of viral genome M/ml of supernatant ([3]; A549, 48 hpi, in the presence of Nutlin-3 (FIG. 2B))","gain in viral production (copies M/ml) vs absence of Nutlin-3 ([3]; A549, 72 hpi (FIG. 2B)) [fold]","times more copies of genome M/ml compared with the control ([4]; 24 hpi, pretreatment 14 h before infection (FIG. 5))","effect on viral titer (copies of genome M/ml) in cell supernatants ([4]; pretreatment 14 h before infection, after several consecutive viral cycles (FIG. 5))","times more copies of genome M in the supernatant compared with the control ([3]; A549, 48 hpi, MOI 10^−3, 2 μM (FIG. 6))","times more copies of genome M in the supernatant compared with the control ([3]; A549, 72 hpi, MOI 10^−3, 20 μM (FIG. 6))"
"COc1ccc(C2=NC(c3ccc(Cl)cc3)C(c3ccc(Cl)cc3)N2C(=O)N2CCNC(=O)C2)c(OC(C)C)c1 (racemic) [Nutlin-3, (±)-4-[4,5-bis(4-chlorophenyl)-2-(2-isopropoxy-4-methoxy-phenyl)-4,5-dihydroimidazole-1-carbonyl]piperazin-2-one]",more marked cytopathic effect,gain of one log 10 difference,11,50,more than 36 fold,1.5,5.7,40,2.44×10^8 copies M/ml,88,up to 19 times,greatly increases the viral titer,,
"Cc1ccc2ccc(C(Nc3ccccc3)c3ccccc3)c(O)c2n1 (centres unmarked) [NSC66811, 2-methyl-7-[phenyl(phenylamino)methyl]-8-quinolinol]",,,,,,,,,,,,,approximately 6 times,approximately 5 times
